Measured values: patent publication US12653880B2, “SARS-CoV-2 polypeptides” (priority 2021, dated 2026)

Columns and labels:
rVSV-SARS-CoV-2-S virus = settings: in vivo
C57BL/6J mice = assay: Antibody ELISA of sera from immunized mice; assay type: in vivo; settings: listed in rank order
Procedure: Briefly, Immulon 4 HBX 96-well plates for ELISA are obtained from Thermo Fisher Scientific (Waltham, Mass.). The plate is coated with 1 μg/well of either a pool of peptides or individual peptides in coating buffer (50 mM sodium carbonate, pH 9.6) overnight at 4° C. After the coating buffer is removed, the plate is blocked with 2% BSA in PBS for 1 hour at room temperature, followed by washing three times with 0.5% Tween in PBS (PBST). Sera are diluted 1:200 in PBS and added to each well and the plate is incubated for 2 hours at room temperature. After incubation, the plate is washed three times with PBST. The secondary antibody is conjugated with HRP, and iss added at a 1:10,000 dilution in PBS. The plate is incubated for 1 hour at room temperature. After washing three times with PBST, TMBE-100 peroxidase substrate (Rockland Immunochemicals, Inc., Limerick, Pa.) is added, followed by 30 minutes incubation at room temperature. Finally, the enzymatic reaction is stopped by adding 2M H2SO4. Optical density at 450 nm (OD450) is read within 15 minutes after adding H2SO4 using a Spectramax® ABS Plus microplate reader (Molecular Devices, San Jose, Calif.) and the SoftMax® 7 Pro Software. […]

golden Syrian hamsters [1] = assay: Peptide-specific antibody ELISA of sera from immunized hamsters; assay type: in vivo; settings: listed in rank order
Procedure: Female golden Syrian hamsters (Charles River Laboratories, Wilmington, Mass.) are immunized with a 2-dose regimen with a 14-day interval between doses. Two weeks after the second dose, hamsters are euthanized. Hamster blood is collected by cardiac puncture and serum is prepared for the quantification of peptide-specific antibodies by an in-house indirect ELISA method. Spleens and draining lymph nodes serve as a source of cells for the IFN-γ ELISPOT and other assays. Unless otherwise noted, water-in-oil emulsions are administered subcutaneously, all other adjuvant formulations are administered intramuscularly.
A total of 52 peptides are tested for immunogenicity. Antibody responses in hamster sera specimens to individual peptides or peptide pools are quantified by ELISA.
Briefly, Immulon 4 HBX 96-well plates for ELISA are obtained from Thermo Fisher Scientific (Waltham, Mass.). The plate is coated with 1 μg/well of either a pool of peptides or individual peptides in coating buffer (50 mM sodium carbonate, pH 9.6) overnight at 4° C. […] Optical density at 450 nm (OD450) is read within 15 minutes after adding H2SO4 using a Spectramax® ABS Plus microplate reader (Molecular Devices, San Jose, Calif.) and the SoftMax® 7 Pro Software.

golden Syrian hamsters [2] = assay: IFN-γ ELISPOT of spleen and lymph node cells from immunized hamsters; assay type: in vivo; settings: listed in rank order

SRIGMEVTPSGTWLTYTGAIKLDDKDPNFKDQVILLNKHIDAYK (N-overlap Long)
neutralization activity of peptide-specific antibody (rVSV-SARS-CoV-2-S virus): non-specific background

YFTSDYYQLYSTQLSTDTGV [ORF3a]
Mice ELISA: top 10 immunogenic peptides, ranked on magnitude of responses (C57BL/6J mice): ORF3a
Hamsters ELISA: top 10 immunogenic peptides, ranked on magnitude of responses (golden Syrian hamsters [1]): ORF3a
Hamsters ELISPOT: top 10 immunogenic peptides, ranked on magnitude of responses (golden Syrian hamsters [2]): ORF3a

PQIQLAVTRMENAVGRD [ORF9b.1*11]
Mice ELISA: top 10 immunogenic peptides, ranked on magnitude of responses (C57BL/6J mice): ORF9b.1*11
Hamsters ELISA: top 10 immunogenic peptides, ranked on magnitude of responses (golden Syrian hamsters [1]): ORF9b.1*11
Hamsters ELISPOT: top 10 immunogenic peptides, ranked on magnitude of responses (golden Syrian hamsters [2]): ORF9b.1*11
